In general, IC50 refers to the concentration at which inhibition is half-maximal. One may read the ED50 as the dose that gives a 50% effect, or the effect in half of the subjects. A lower ED50 goes with an effect at a small dose.

Molecules are shown by their SMILES. Like-named read-outs stand apart in the source and are kept apart here. Some results are limits rather than exact numbers.

Assay [1] addresses T1, central cholecystokinin receptor: CCK-B (Cavia porcellus, UniProt H0VZC5).
T1 construct: guinea-pig brain membranes; from tissue; host or cells: brain membranes of male guinea pigs (animals from COBLABO)
T1 sequence (H0VZC5 1-426): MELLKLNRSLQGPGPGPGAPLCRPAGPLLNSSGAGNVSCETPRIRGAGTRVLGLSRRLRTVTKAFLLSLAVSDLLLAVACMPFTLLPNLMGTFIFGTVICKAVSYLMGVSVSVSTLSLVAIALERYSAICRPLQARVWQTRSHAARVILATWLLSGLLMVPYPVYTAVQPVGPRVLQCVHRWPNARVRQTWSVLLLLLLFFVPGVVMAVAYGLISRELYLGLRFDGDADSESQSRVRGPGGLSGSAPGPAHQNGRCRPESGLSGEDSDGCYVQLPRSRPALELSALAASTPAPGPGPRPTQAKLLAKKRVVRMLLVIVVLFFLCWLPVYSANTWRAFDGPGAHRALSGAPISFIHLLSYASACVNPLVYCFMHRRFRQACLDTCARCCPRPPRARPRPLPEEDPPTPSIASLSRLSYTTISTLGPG
Kind of assay: Binding affinity for the central cholecystokinin receptor (CCK B), guinea-pig brain membranes, inhibition of labelled [125I]-CCK8 sulphate binding. The text has this:
(§1) The "in vitro" studies consisted in determining the binding affinity of the compounds of the invention for the cholecystokinin and gastrin receptors. […]
(§2) guinea-pig brain membranes (males, COBLABO, 325-350 g) (central cholecystokinin receptor: CCK-B).
(§3) in accordance with the experimental protocol described by INNIS, R. B. and S. M. SNYDER, Eur. J. Pharmacol., 1980 65 123-124.
(§4) The unit of measurement is the nanomole.

Assay [2] has as its target T2, peripheral cholecystokinin receptor: CCK-A (Rattus norvegicus, UniProt P30551).
T2 construct: plasma membranes of the rat pancreas; from tissue; host or cells: pancreas plasma membranes of male SD rats (animals from IFFA CREDO)
T2 sequence (P30551 1-444): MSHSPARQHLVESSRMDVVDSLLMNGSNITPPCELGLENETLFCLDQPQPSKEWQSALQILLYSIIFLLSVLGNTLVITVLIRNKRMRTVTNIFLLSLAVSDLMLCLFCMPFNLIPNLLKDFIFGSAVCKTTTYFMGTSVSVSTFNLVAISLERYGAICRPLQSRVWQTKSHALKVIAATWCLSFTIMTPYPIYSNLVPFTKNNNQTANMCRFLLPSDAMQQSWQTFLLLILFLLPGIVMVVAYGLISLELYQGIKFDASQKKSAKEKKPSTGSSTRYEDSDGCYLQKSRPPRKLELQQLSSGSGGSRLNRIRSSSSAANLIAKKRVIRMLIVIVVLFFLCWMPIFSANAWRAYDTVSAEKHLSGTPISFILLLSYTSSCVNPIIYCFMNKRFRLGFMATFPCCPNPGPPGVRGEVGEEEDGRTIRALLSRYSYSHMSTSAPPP
Kind of assay: Binding affinity for the peripheral cholecystokinin receptor (CCK A), plasma membranes of the rat pancreas, inhibition of labelled [125I]-CCK8 sulphate binding.
Source text: (§5) The "in vitro" studies consisted in determining the binding affinity of the compounds of the invention for the cholecystokinin and gastrin receptors.
(§6) The aim of these experiments was to determine the solution concentrations of products of formula (I) which were capable of inhibiting in relation to the receptors in question fifty percent of the cholecystokinin bonds, labelled with […] (abbreviated below as [1251]-CCK8 sulphate) or in the case of the iodine-125-labelled gastrin receptor with the following receptors:
plasma membranes of the rat pancreas (male SD, rats, IFFA CREDO 200-225 g) (peripheral cholecystokinin receptor: CCK-A),
as §3, §4

The target of assay [3] is T3, gastrin receptor (Cavia porcellus, UniProt H0VZC5).
T3 construct: guinea-pig gastric glands; from tissue; host or cells: gastric glands of male guinea pigs (animals from COB LABO)
T3 sequence (H0VZC5 1-426): T1 sequence (H0VZC5 1-426)
The assay can be described thus: Binding affinity for the gastrin receptor, guinea-pig gastric glands, iodine-125-labelled gastrin.
Source text: as §5, §6
(§7) guinea-pig gastric glands (males, COB LABO, 325-350 g) in accordance with the method described by PRAISSMAN, M., M. E. WALDEN and C. PELLECHIA. Journal of Receptor Research, 1983 3 647-665 (gastrin receptor).
as §4

In assay [4] the test system is gastrin-induced acid secretion. The assay can be described thus: Gastrin-induced acid secretion in the rat (chronic gastric fistula, pentagastrin perfusion). The conditions noted are these: 1 mg/kg oral; for Gastric secretion % inhibition: SD male rat, pentagastrin 6 μg/kg/h i.v. It is filed as in vivo. How it is done: The activity of the products of the invention in relation to gastrin-induced acid secretion in the rat has been studied by the method described by Pascaud, X. P. , A. R. Roger and M. J. H. Genton. Digestion, […] 16 57-68. The method consists in collecting the gastric acid secretion over two consecutive 2 hour periods in SD male rats (IFFA CREDO 250-300 g), provided with a chronic gastric fistula and continuously perfused i.v. with a pentagastrin solution (Peptavlon, ICI, 6 μg/kg/h). The inhibition of this secretion by the oral administration of 1 mg/kg product of the invention has been determined.

The test system of assay [5] is gastric evacuation, slowed down by CCK-8 (peripheral receptor CCK-A). Kind of assay: Gastric evacuation slowed down by CCK-8 in the mouse. It is filed as in vivo. To be noted: oral; for ED50: Mus musculus, SWISS male mice, CCK-8 80 μg/kg subcutaneous. How it is done: The antagonist activity of CCK on the digestive motor effects of the hormone has been examined in relation to the gastric evacuation, slowed down by the subcutaneous administration of CCK-8 (80 μg/kg) in SWISS male mice (IFFA CREDO 16-20 g), using the technique described by Lotti, V. J., D. J. Cerino, P. J. Kling and R. S. L. Chang. Life Sciences, 1986 39, 1631-1638.

The test system of assay [6] is central cholecystokinin receptor: CCK-B. The assay can be described thus: Binding affinity for the central cholecystokinin receptor (CCK B), guinea-pig brain membranes, inhibition of labelled [125I]-CCK8 sulphate binding. To be noted: for Selectivity CCK B/CCK A: IC50 CCK A / IC50 CCK B.
Source text: as §1, §2, §3, §4

Assay [7] concerns gastrin receptor. Kind of assay: Binding affinity for the gastrin receptor, guinea-pig gastric glands, iodine-125-labelled gastrin. To be noted: for Selectivity GASTRIN/CCK A: IC50 CCK A / IC50 gastrin.
Source text: as §5, §6, §7, §4

Assay [8] deals with A receptors of cholecystokinin. The conditions noted are these: published, in vitro; cited from earlier work.
The next assay concerns gastrin receptors. The conditions noted are these: published, in vitro, cited from earlier work.
The mark [9] stands for this setting: guinea-pig brain membranes; Table I; read-out: IC50 Receptor bond CCK B.
Where [10] appears, read: guinea-pig gastric glands; Table I; read-out: IC50 Receptor bond Gastrin.
Setting [11] is: in comparison with compound XXa.

Take `Cc1cccc(NC(=O)NC2N=C(c3ccccc3)c3cccc4c3N(CC4)C2=O)c1` (racemic) [Example 1, (4R,S)-N-(keto-3-phenyl-6-tetrahydro-1,2,3,4-pyrrolo[3,2,1-j,k]benzodiazepine[1,4]-yl-4)-N'-(methyl-3-phenyl-)-urea]: the IC50 is 431 nM in [1] (setting [9]), 59.6 nM in assay [2] and 14.4 nM at gastrin receptor [3] (setting [10]).
Take `Cc1cccc(NC(=O)NC2N=C(c3ccccc3)c3cccc4c3N(CCC4)C2=O)c1` (racemic) [Example 5, (5R,S)-N-(keto-4-phenyl-7-hexahydro-1,2,3,3a,4,5-pyrido [3,2,1-j,k]benzodiazepine-[1,4]-yl-5)-N'-(methyl-3-phenyl-)-urea]: the IC50 worked out at 251 nM in [1] (setting [9]), 84.2 nM in assay [2] and 1.5 nM at gastrin receptor [3] (setting [10]). For the same molecule, the “times less active on the gastrin receptor than XXa” value (“times less active” for short) on gastrin receptor [3] (setting [11]) came out at 3 times. Moreover, the “activity compared with reference compound XXa (gastrin-specific compounds)” value on gastrin receptor [3] (in words) was “similar”.
For `O=C(Nc1ccc([N+](=O)[O-])cc1)NC1N=C(c2ccccc2)c2cccc3c2N(CCC3)C1=O` (racemic) [Example 8, (5R,S)-N-(keto-4-phenyl-7-hexahydro-1,2,3,3a,4,5-pyrido[3,2,1-j,k]benzodiazepine-[1,4]-yl-5)-N'-(nitro-4-phenyl-)-urea], the IC50 in assay [1] (setting [9]) is 1810 nM; in assay [2], 3080 nM; on gastrin receptor [3] (setting [10]), 60 nM.
With `O=C1C(NC(=S)Nc2ccc(Br)cc2)N=C(c2ccccc2)c2cccc3c2N1CCC3` (racemic) [Example 10, (5R,S)-N-(keto-4-phenyl-7-hexahydro-1,2,3,3a,4,5-pyrido[3,2,1-j-k]benzodiazepine-[1,4]-yl-5)-N'-(bromo-4-phenyl-)-thiourea], the “Gastric secretion % inhibition” value in assay [4] amounted to 31%. Also, the “inhibiting activity on gastrin-induced acid secretion compared with XXa” value in [4] (in words) was “identical”. Moreover, the IC50 was found to be 88 nM in [1] (setting [9]), 3040 nM in assay [2] and 3.2 nM on gastrin receptor [3] (setting [10]). In [5], this molecule displayed an ED50 of 15.5 mg/kg. Moreover, the “times more product required than XXa for 50% reduction of the inhibiting effects of CCK-8 on gastric evacuation” value in [5] (in comparison with XXa) was 100 times. The “times less active” value at gastrin receptor [3] (setting [11]) was 1.5 times. The “activity compared with reference compound XXa (gastrin-specific compounds)” value on gastrin receptor [3] (in words) is “similar”.
As to `O=C(Nc1cnc2ccccc2c1)NC1N=C(c2ccccc2)c2cccc3c2N(CCC3)C1=O` (racemic) [Example 23, (5R,S)-N-(keto-4-phenyl-7-hexahydro-1,2,3,3a,4,5-pyrido[3,2,1-j,k]benzodiazepine[1,4]-yl-5)-N'-(quinolinyl-3-)-urea], the figures for the IC50 (in [1] (setting [9]); in assay [2]; on gastrin receptor [3] (setting [10])) were 176 nM, 389 nM and 298 nM, respectively. The “factor less active on the CCK B receptor than XXa” value in [1] (setting [11]) is 2 factor. The “higher selectivity for the CCK B receptor than XXa” value in assay [6] (setting [11]) was about 30 times. Further, the “times less active” value on gastrin receptor [3] (setting [11]) was about 60 times.
As for `O=C1C(NC(=S)Nc2ccc(Br)cc2)N=C(c2ccccc2)c2cccc3c2N1CCC3` (stereo in doubt) [Example 26, (5S)-N-(keto-4-phenyl-7-hexahydro-1,2,3,3a,4,5-pyrido[3,2,1-j,k]benzodiazepine[1,4]-yl-4)-N'-(bromo-4-phenyl-)-thiourea], the IC50 in assay [1] (setting [9]) was 137 nM; in assay [2], over 10000 nM; at gastrin receptor [3] (setting [10]), 36 nM. In addition, the “Selectivity CCK B/CCK A” value in [6] is listed as over 70. The “Selectivity GASTRIN/CCK A” value with gastrin receptor [7] is on record as over 250.
For `Cc1cccc(NC(=O)N[C@@H]2N=C(c3ccccc3)c3cccc4c3N(CC4)C2=O)c1` [Example 2, (4R)-N-(keto-3-phenyl-6-tetrahydro-1,2,3,4-pyrrolo[3,2,1-j,k]benzodiazepine-[1,4]-yl-4)-N'-(methyl-3-phenyl-)-urea], the half-maximal inhibitory concentration (IC50) in assay [1] (setting [9]) worked out at 99.9 nM; in assay [2], 1020 nM; on gastrin receptor [3] (setting [10]) it was 85.9 nM. Besides, the “activity on the CCK B receptor compared with XXa” value in assay [1] (in words) is listed as “of the same order”. For the same molecule, the “activity on the CCK A receptor compared with XXa” value in assay [2] (in words) was “of the same order”. Besides, the “times less active” value at gastrin receptor [3] (setting [11]) came to 20 times.
With `Cc1cccc(NC(=O)N[C@@H]2N=C(c3ccccc3)c3cccc4c3N(CCC4)C2=O)c1` [Example 7, (+)-(5R)-N-(keto-4-phenyl-7-hexahdyro-1,2,3,3a,4,5-pyrido [3,2,1-j,k]benzodiazepine[1,4]-yl-5)-N'-(methyl-3-phenyl-)-urea], the IC50 in [1] (setting [9]) came to 255 nM; in [2], 1730 nM; on gastrin receptor [3] (setting [10]), 40.5 nM.
As to `Cc1cccc(NC(=O)N[C@@H]2N=C(c3ccccc3)c3ccccc3N(C)C2=O)c1` [XXa, reference compound], the “Gastric secretion % inhibition” value in [4] amounted to 29%. The IC50 in assay [1] (read-out: IC50 Receptor bond CCK B; guinea-pig brain membranes; Table I) was 81.4 nM; in [2] (rat pancreas plasma membranes, Table I, read-out: IC50 Receptor bond CCK A) it was 1420 nM; at gastrin receptor [3] (read-out: IC50 Receptor bond Gastrin; guinea-pig gastric glands; Table I), 4.7 nM. Further, in [6], the “Selectivity CCK B/CCK A” value was determined as 17. Moreover, the “CCK-A activity, term of the CCK-A/gastrin ratio” value in [8] is reported as 290. Further, the “gastrin activity, term of the CCK-A/gastrin ratio” value in the assay on gastrin receptors is 1.9. Also, the “CCK-A/gastrin activity ratio (times more favourable to gastrin receptors)” value in the assay with gastrin receptors (ratio 290/1.9) is recorded as “about 150 times”. Besides, the 50% effect level in assay [5] (ED50) was put at a dose of 0.15 mg/kg. In addition, in the assay on gastrin receptor [7], the “Selectivity GASTRIN/CCK A” value is recorded as 302. Further, the “CCK-A/gastrin activity ratio reproduced by the Applicant (times more favourable to gastrin receptors)” value with gastrin receptor [7] (ratio 1419/4.7) was “about 300 times”.

(Values after patent publication US5082937A, “Benzodiazepines and applications in therapeutic practice” (Jouveinal S.A., priority 1989, dated 1992).)
